# Key:
# human Kir2.1 [1] = target: T1, human Kir2.1 (Homo sapiens, UniProt P63252); test: Kir2.1 thallium flux assay; assay type: cell-based; conditions: for IC50: T-REx-HEK-293 cells expressing human Kir2.1, 4PL fit, top concentration 30 μM, read-out: Thallium Flux Potency IC50
# T1 construct: expressed in transfected cells
# T1 sequence (P63252 1-427): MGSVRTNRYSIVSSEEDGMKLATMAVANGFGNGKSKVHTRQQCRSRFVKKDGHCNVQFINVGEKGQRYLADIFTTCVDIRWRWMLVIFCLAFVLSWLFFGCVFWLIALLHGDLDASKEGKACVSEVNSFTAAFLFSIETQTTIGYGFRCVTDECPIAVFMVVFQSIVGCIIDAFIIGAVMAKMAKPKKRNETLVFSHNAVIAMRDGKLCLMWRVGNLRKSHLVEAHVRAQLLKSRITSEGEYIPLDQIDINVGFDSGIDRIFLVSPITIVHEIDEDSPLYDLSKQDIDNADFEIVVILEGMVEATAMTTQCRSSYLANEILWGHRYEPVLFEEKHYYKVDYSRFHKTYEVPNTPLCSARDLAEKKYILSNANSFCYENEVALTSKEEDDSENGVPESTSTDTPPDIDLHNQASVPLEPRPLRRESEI
# Protocol: Thallium Flux Assay Experimental Conditions
# The Tl+ flux assays were conducted as previously described with modifications optimized for Kir2.1 cell line as described below.1
# Briefly, stable T-REx-HEK-293 cells expressing human K ir2.1 were cultured in DMEM growth medium (Catalog #11965-092, Gibco, Billings, MT) containing 10% heat-inactivated FBS (Catalog #16140, Gibco), 100 U/mL PenStrep, 5 μg/mL Blasticidin S, and 250 μg/mL Hygromycin.
# The day prior to the experiment, cells at ~90% confluency were resuspended in plating media, which consisted of the same components as the growth media, except that heat-inactivated FBS was replaced with dialyzed FBS (Catalog #26400, Gibco). Tetracycline was added to the plating media to achieve a final concentration of 1 μg/ml to induce hKir2.1 expression. Cells were then counted and plated at 15,000 cells/well in black-walled, amine- or PDL- coated, 384-well plates at 20 μl/well (Corning, Corning, NY). On the day of experiment, the media was removed from the cell plate and replaced with 20 μl/well of Tl+-sensitive dye loading solution containing 2.5 μg/ml Thallos-AM (Catalog #11000-050, ION Biosciences, San Marcos, TX) in assay buffer using a Multidrop Combi dispenser (Thermo Fisher Scientific, Walkham, MA). Cell plates loaded with dye solution were incubated for 1 hour at room temperature. Following incubation, the cell plate was washed with HBSS assay buffer containing 20 mM HEPES using a BioTek ELx 405 TS plate washer (Agilent, Santa Clara, CA), leaving 20 μl of assay buffer in each well. The cell plate was then transferred to a Panoptic kinetic imaging plate reader (WaveFront Biosciences, Franklin, TN) for imaging at 1 Hz, 482/35 nm excitation and 536/40 nm emission for 10 seconds. Following this, 20 μl/well of HBSS assay buffer containing test compounds at 2-fold over their final concentrations were added and imaging continued for another eight minutes, after which 10 μl/well of chloride-free Tl+ stimulus solution was added (Catalog #11000-050, ION Biosciences). The final Tl2SO4 concentration in cell plate post-Tl+ stimulus solution addition was 0.25 mM. Images were collected for an additional two minutes. A ten-point concentration series from 30 μM to 2 nM with a 1:3 dilution factor was generated using an Echo liquid handler 650 (Labcyte, San Jose, CA). Final DMSO concentration, 0.3% (v/v) in the assay was constant across all compound concentrations.
# The initial slopes of the Tl+-induced fluorescence changes were fit to a four-parameter logistic equation using our in-house software Waveguide to determine potency and efficacy values. […]
# Bauer, J. A.; Days, E. L.; Lindsley, C. […]
# human Kir2.1 [2] = target: T1, human Kir2.1; test: Kir2.1 manual patch clamp (MPC) assay; assay type: cell-based; conditions: pH 7.4, -120 mV, normalized to 2 mM Ba2+ block; top concentration 10 μM (ML133 30 μM, 5t 3 μM)
# Protocol: Manual Patch Claim Assay Experimental Conditions
# Whole-cell patch-clamp electrophysiology was used to record K ir2.1 currents from a stably transfected monoclonal T-Rex-HEK-293 cell line with a tetracycline-inducible promoter expressing human Kir2.1, as described previously1 cultured in a 5% CO2 incubator at 37°C. Kir2.1 expression was induced by overnight treatment with 1 µg/mL tetracycline. Cells were dissociated using 0.25% Trypsin-EDTA and seeded onto 12 mm circular coverslips (Electron Microscopy Sciences, PA, USA) for same-day whole-cell patch-clamp recordings. Kir2.1 currents were recorded at room temperature using an AxoPatch 200B amplifier with Clampex 10.7 software (Molecular Devices, USA). The voltage-clamp protocol consisted of a 1-s step to -120 mV from a -80 mV holding potential, followed by a 2-s ramp to +40 mV, repeated every 10 s. Data were sampled at 5 kHz and filtered at 1 kHz. Patch pipettes, pulled from 1.5 mm OD thin-walled capillaries (Warner Instruments, MA, USA) using a Sutter P-1000 puller (Sutter Instrument, CA, USA), had resistances of 2–3 MΩ when filled with intracellular solution containing (mM): 135 KCl, 10 HEPES, 1 EGTA, 2 MgCl2, 2 Na2ATP (pH 7.35, adjusted with KOH). The extracellular solution contained (mM): 135 NaCl, 5 KCl, 2 CaCl2, 1 MgCl2, 5 Glucose, 10 HEPES, 10 Sucrose (pH 7.35, adjusted with NaOH). After establishing stable baseline Kir2.1 currents, cells were perfused with compounds at concentrations of 0.03–30 µM until response saturation (within minutes).
# Recordings concluded with a 2 mM Ba2+ solution to isolate Ba2+-sensitive currents, with compound responses expressed as fractions of this current. Current amplitudes at the -120 mV step were analyzed using Clampfit 11.2 (Molecular Devices). IC50 values were calculated by fitting the Hill equation to concentration-response curves (CRCs) using variable -slope nonlinear regression in GraphPad Prism 10.4 (GraphPad Software).
# MPC experiments for Kir2.2 and Kir2.3 were conducted in an analogous fashion.1
# [3] = Rat PK PBL cassette (i.v.); assay type: in vivo, Sprague-Dawley rat; conditions: Sprague-Dawley, iv, male SD rat, 0.2 mg/kg i.v. cassette
# Source text: While ML133 has found use as a Kir2.1 tool molecule across many disease models, the in vivo PK of this and related compounds within the dibenzylamine chemotype have not previously been characterized. As a highly efficient method for profiling the PK of a compound set, we therefore examined ML133 (alongside 9 additional next-generation Kir2.1 inhibitors) in our rat PK PBL cassette dosing platform (Table ). − From this experimental setup, administration of a 4-compound bolus dose, plus a standard control, can be used to determine a variety of PK parameters in a high-throughput fashion. Specifically, Sprague–Dawley (SD) rats were given 0.2 mg/kg of each Kir2.1 inhibitor (i.v. dosing, 4 compounds +1 control, total dose 1 mg/kg) with PK measured across set time points up to 24 h. Additionally, a separate cohort of animals was utilized to assess total plasma-brain levels (PBL, ratio reported as Kp) of compound at a 0.25 time point. In this fashion, standard plasma-based PK parameters (elimination t 1/2, […] (MRT), plasma clearance (CLp), and volume of distribution (Vss)) were measured alongside a parallel assessment of total brain exposure.
# PK PBL Cassette Experimental Conditions
# 4 compounds plus one control were formulated as a solution in ethanol, PEG400, and DMSO (1:3:6 v/v, respectively) at a concentration of 1 mg/mL and administered as a single IV dose (1 mL/kg, 0.2 mg/kg per compound, total 1 mg/kg) to male, Sprague Dawley rats (n = 1) via injection into a surgically -implanted jugular vein catheter. Blood samples were collected serially from a surgically implanted carotid artery catheter in each animal over multiple post -administration time points (0.033, 0.117, 0.25, 0.5, 1, 2, 4, 7, and 24 hours) into chilled, K 2EDTA anticoagulant - fortified tubes and immediately placed on wet ice. The blood samples were then centrifuged (1700 rcf, 5 minutes, 4 °C) to ob tain plasma samples, which were stored at -80 °C until analysis […]
# For determination of the brain over plasma ratio (K p), the same cassette of compounds plus control were formulated in ethanol, PEG400, and DMSO (1:3:6 v/v, respectively) and administered as a single IV dose (1 mL/kg, 0.2 mg/kg per compound, total 1 mg/kg) to male, Sprague Dawley rats ( n = 1) via injection into a surgically-implanted jugular vein catheter. At 15 min post dosing, blood sample was collected terminally into chilled, K 2EDTA anticoagulant-fortified tube and immediately placed on wet ice. The bloo d sample was then centrifuged (1700 rcf, 5 minutes, 4 °C) to obtain plasma sample. At the same post-administration time point, whole brain sample was obtained by rapid dissection, rinsed with PBS, and immediately frozen in individual tissue collection box (dry ice). All brain and plasma samples were stored at -80 °C until […]
# Samples preparation for bioanalysis
# Plasma samples from the in-life phase of the study were thawed at ambient temperature (benchtop), and then aliquots (20 µL per sample) were transferred to a 96-shallow-well (V-bottom) plate. Matrix-matched quality control (QC) samples and a standard curve of each analyte (1 mg/mL DMSO stock solution) were prepared in blank rat plasma (K2EDTA-treated) via serial dilution and transferred (20 µL each) to the plate along with multiple blank plasma samples. MeCN (120 µL) containing IS (10 nM carbamazepine) was added to each well of the plate to precipitate protein. The plate was then centrifuged (4000 rcf, 5 minutes, ambient temperature), and resulting supernatants (60 µL each) were transferred to a new 96-shallow-well (V-bottom) plate containing an equal volume (60 µL per well) of water (Milli-Q purified). The plate was then sealed in preparation for LC-MS/MS analysis.
# Preparation of brain samples was identical to that of plasma samples except for the following modifications. While thawing, brains were weighed (inside their collection boxes using a universal empty collection box tare weight) and then subjected to mechanical homogenization […]
IC50 (human Kir2.1 [1]) [µM],IC50 (human Kir2.1 [2]) [µM],Fold less potent than ML133 in the thallium flux assay (human Kir2.1 [1]),"Emax (human Kir2.1 [1]; efficacy from 4PL fit, relative to ML133, read-out: Thallium Flux Efficacy (% Inhibition)) [%]","Kp at 0.25 h ([3]; brain and plasma, 0.25 time point (15 min post dosing), read-out: Kp (total brain to plasma ratio))","AUC ([3]; plasma, n = 1, read-out: AUC) [ng·h/mL]","clearance ([3]; plasma, n = 1, read-out: CLp) [mL/min/kg]","half-life ([3]; plasma, n = 1, read-out: Elim. t1/2 (converted)) [min]","MRT ([3]; plasma, n = 1, read-out: MRT) [min]","Vd ([3]; plasma, n = 1, read-out: Vss) [L/kg]",SMILES
4.7,0.21,,,,,,,,,COc1ccc(CNCc2ccc(-c3cccc(OC)c3)cc2)cc1 [Compound 13]
5.4,0.21,,,,,,,,,COc1ccc(CNCc2ccc(-c3cccc(OC)c3)cc2)cc1 [Compound 9]
4.3,0.33,,,,,,,,,COc1ccc(CNCc2ccc(-c3cccc(OC)c3)cc2)cc1 [Compound 11]
24.8,,approximately 2 fold,140,1.05,183,18.2,17.4,21.6,0.39,COc1ccc(CNCc2cncc3ccccc23)cc1 [Compound 5b]
